Laboratory results published in patent US10034886B2, “GLP-1 receptor modulators” (Celgene International II SÀRL, priority 2014, dated 2018).
pEC50: −log10 of the molar value.

target: T1, GLP-1R (Homo sapiens, UniProt P43220); assay: EC20 GLP-1(9-36) PAM cAMP assay: dose response of compound in the presence of fixed concentration of GLP-1(9-36); format: cell-based; settings: GLP-1R CRE-bla CHO-K1 cells, compound dose response with fixed concentration of GLP-1(9-36), read-out: EC20 GLP-1(9-36) PAM EC50
T1 construct: host or cells: GLP-1R CRE-bla CHO-K1 cells
T1 sequence (P43220 24-463): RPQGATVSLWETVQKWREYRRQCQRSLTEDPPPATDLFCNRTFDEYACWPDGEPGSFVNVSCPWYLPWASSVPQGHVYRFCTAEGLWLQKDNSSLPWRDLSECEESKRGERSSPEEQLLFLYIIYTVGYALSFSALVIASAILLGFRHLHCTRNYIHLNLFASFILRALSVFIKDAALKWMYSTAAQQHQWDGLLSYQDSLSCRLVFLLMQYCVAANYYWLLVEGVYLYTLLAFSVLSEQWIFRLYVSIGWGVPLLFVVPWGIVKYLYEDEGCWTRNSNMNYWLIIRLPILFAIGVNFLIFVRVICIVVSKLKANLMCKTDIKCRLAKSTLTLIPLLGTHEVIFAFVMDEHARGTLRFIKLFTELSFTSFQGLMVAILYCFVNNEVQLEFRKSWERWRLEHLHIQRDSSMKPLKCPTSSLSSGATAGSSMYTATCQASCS
T1 sequence (P01275 100-127 partner limits assumed): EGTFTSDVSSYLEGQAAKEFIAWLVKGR
Outline: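 GLP-1R CRE-bla CHO-K1 cells treated 30 min at 37 °C with 12-point compound dose response plus fixed EC20 GLP-1(9-36), with IBMX, in HBSS/HEPES/0.1% BSA pH 7.4. Total cAMP measured by luminescent detection against standard curve; EC50 and Emax from non-linear regression.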

| SMILES | pEC50 |
| --- | --- |
| CC[C@H]1CC[C@H](c2ccc(-c3cnc(-c4ccc(C[C@H](NC(=O)c5ccc(C(F)(F)F)s5)C(=O)O)cc4)nc3)cc2)CC1 [Compound 1369] | 5.60 to 6.10 |
| CC(C)CCCOc1ccc(-c2cnc(-c3ccc(C[C@H](NC(=O)c4ccc(CC(C)C)s4)C(=O)N4CC(C(=O)O)C4)cc3)nc2)cc1 [Compound 1234] | 5.30 to 5.60 |
| COc1ccc(C2CCN(c3cnc(-c4ccc(C[C@H](NC(=O)c5ccc(C(C)(C)C)s5)C(=O)N5CC(C(=O)O)C5)cc4)nc3)CC2)cc1 [Compound 1425] | 5.60 to 6.10 |
| Cc1cccc(C)c1-c1ccc(-c2cnc(-c3ccc(C[C@H](NC(=O)c4ccc(C(C)(C)C)s4)C(=O)N4CC(C(=O)O)C4)cc3)nc2)c(F)c1 [Compound 1205] | > 6.10 |
| CCC[C@H]1CC[C@H](C2CCN(c3cnc(-c4ccc(C[C@H](NC(=O)c5ccc(C(C)(C)C)s5)C(=O)NC(CCCOC)C(=O)O)cc4)nc3)CC2)CC1 (stereo partly drawn) [Compound 1458] | > 6.10 |
| CC[C@H]1CC[C@H](c2ccc(-c3cnc(-c4ccc(C[C@@H](NC(=O)c5ccc(C(C)(C)C)s5)C(=O)O)cc4)nc3)cc2)CC1 [Compound 1392] | 5.60 to 6.10 |
| CCC[C@H]1CC[C@H](C2CCN(c3cnc(-c4ccc(C[C@H](NC(=O)c5ccc(C(C)(C)C)s5)C(=O)NC5(C(=O)O)CCCC5)cc4)nc3)CC2)CC1 [Compound 1470] | > 6.10 |
| CCC[C@H]1CC[C@H](C2CCN(c3cnc(-c4ccc(C[C@H](NC(=O)c5ccc(C(C)(C)C)s5)C(=O)NC(CN(C)C)C(=O)O)cc4)nc3)CC2)CC1 (stereo partly drawn) [Compound 1459] | > 6.10 |
| CC[C@H]1CC[C@H](c2ccc(-c3cnc(-c4ccc(C[C@H](NC(=O)c5ccc(C(C)(C)C)s5)C(=O)N5CC(C(=O)O)C5)cc4)nn3)cc2)CC1 [Compound 1337] | > 6.10 |
| C[C@@H](NC(=O)[C@H](Cc1ccc(-c2ncc(OCc3ccc(C(F)(F)F)cc3)cn2)cc1)NC(=O)c1ccc(C(C)(C)C)s1)C(=O)O [Compound 1272] | 5.00 to 5.30 |

Further lines, results first:

| pEC50 | SMILES |
| --- | --- |
| 5.00 to 5.30 | CCCc1ccc(CC2CN(c3cnc(-c4ccc(CC(NC(=O)c5ccc(C(C)(C)C)s5)C(=O)N5CC(C(=O)O)C5)cc4)nc3)C2)cc1 (stereo not drawn) [Compound 1509] |
| 5.60 to 6.10 | CCC[C@H]1CC[C@H](C2CCN(c3cnc(-c4ccc(C[C@H](NC(=O)c5ccc(C(C)(C)C)s5)C(=O)N5CC(F)(C(=O)O)C5)cc4)nc3)CC2)CC1 [Compound 1451] |
| 5.30 to 5.60 | Cc1ccc(-c2ccc(-c3ccc(-c4cnc(-c5ccc(C[C@H](NC(=O)c6ccc(C(C)(C)C)s6)C(=O)N6CC(C(=O)O)C6)cc5)nc4)c(F)c3)cc2)cc1 [Compound 1214] |
| > 6.10 | CCCc1ccc(-c2ccc(-c3cnc(-c4ccc(C[C@H](NC(=O)c5ccc(CC(C)C)s5)C(=O)N5CC(C(=O)O)C5)cc4)nc3)c(F)c2)cc1 [Compound 1405] |
| 5.30 to 5.60 | CCC(C)(C)c1ccc(C(=O)N[C@@H](Cc2ccc(-c3ncc(-c4ccc(OCCCC(C)C)cc4)cn3)cc2)C(=O)N2CC(C(=O)O)C2)cc1 [Compound 1237] |
| > 6.10 | CCC[C@H]1CC[C@H](C2CCN(c3cnc(-c4ccc(C[C@H](NC(=O)c5ccc(C(C)(C)C)s5)C(=O)N[C@@H](C(=O)O)C5CC5)cc4)nc3)CC2)CC1 [Compound 1444] |
| 5.60 to 6.10 | CCC[C@H]1CC[C@H](C2CCN(c3cnc(-c4ccc(C[C@H](NC(=O)c5ccc(C)s5)C(=O)N5CC(C(=O)O)C5)cc4)nc3)CC2)CC1 [Compound 1530] |
| > 6.10 | CCCc1ccc(-c2ccc(-c3cnc(-c4ccc(C[C@H](NC(=O)c5ccc(C(C)(C)C)cc5)C(=O)N5CC(C(=O)O)C5)cc4)nc3)c(F)c2)cc1 [Compound 1399] |

same assay, conditions: dose response of compound in presence of fixed concentration of GLP-1(9-36), GLP-1R CRE-bla CHO-K1 cells, read-out: EC20 GLP-1(9-36) PAM EC50

| SMILES | pEC50 |
| --- | --- |
| Cc1cc(C)cc(-c2cnc(-c3ccc(C[C@H](NC(=O)c4ccc(C(C)(C)C)s4)C(=O)N[C@H](C)C(=O)O)cc3)nc2)c1 [Compound 1042] | 5.00 to 5.30 |
| C[C@@H](NC(=O)[C@H](Cc1ccc(-c2ncc(-c3ccc(OCc4ccccc4)c(F)c3)cn2)cc1)NC(=O)c1ccc(C(C)(C)C)s1)C(=O)O [Compound 994] | 5.60 to 6.10 |
| CCCCCCCOc1ccc(-c2cnc(-c3ccc(C[C@H](NC(=O)c4ccc(OC)cc4)C(=O)N4CC(C(=O)O)C4)cc3)nc2)cc1 [Compound 1109] | 5.60 to 6.10 |
| CCCCCCCOc1ccc(-c2cnc(-c3ccc(C[C@H](NC(=O)c4ccc(OCC(C)C)cc4)C(=O)N[C@H](C)C(=O)O)cc3)nc2)cc1 [Compound 829] | 5.00 to 5.30 |
| Cc1cccc(-c2noc(-c3cnc(-c4ccc(C[C@H](NC(=O)c5ccc(C(C)(C)C)cc5)C(=O)NCCC(=O)O)cc4)nc3)n2)c1 [Compound 750] | 5.30 to 5.60 |
| CCCCCCCOc1ccc(-c2cnc(-c3ccc(C[C@H](NC(=O)c4ccc(C(C)(C)C)s4)C(=O)NC(C(=O)O)C(O)c4ccccc4)cc3)nc2)cc1 (stereo partly drawn) [Compound 634] | > 6.10 |
| CCCCCCCOc1ccc(-c2cnc(-c3ccc(C(NC(=O)c4ccc(C(C)(C)C)cc4)C(=O)O)cc3)nc2)cc1 (stereo not drawn) [Compound 670] | 5.30 to 5.60 |
| CCC(C)COc1ccc(-c2cnc(-c3ccc(C[C@H](NC(=O)c4ccc(C(C)(C)C)s4)C(=O)N4CC(C(=O)O)C4)cc3)nc2)cc1 (stereo partly drawn) [Compound 797] | 5.60 to 6.10 |
| CCCC(C)CCOc1ccc(-c2cnc(-c3ccc(C[C@H](NC(=O)c4ccc(C(C)(C)C)cc4)C(=O)NCCC(=O)O)cc3)nc2)cc1 (stereo partly drawn) [Compound 706] | 5.60 to 6.10 |
| Cc1cccc(-c2ccc(-c3cnc(-c4ccc(C[C@H](NC(=O)c5ccc(C(C)(C)C)s5)C(=O)N[C@H](C)C(=O)O)cc4)nc3)cc2F)c1 [Compound 1141] | > 6.10 |
| CCCCCCCOc1ccc(-c2cnc(-c3ccc(C[C@H](NC(=O)c4ccc(C(C)(C)C)s4)C(=O)NCC4CCNCC4)cc3)nc2)cc1 [Compound 463] | 5.00 to 5.30 |
| CCCCCCCOc1ccc(-c2cnc(-c3ccc(C[C@H](NC(=O)c4ccc(O)c(F)c4)C(=O)N4CC[C@H](C(=O)O)C4)cc3)nc2)cc1 [Compound 1096] | 5.60 to 6.10 |
| CCCCCCCOc1ccc(-c2cnc(-c3ccc(C[C@H](NC(=O)c4ccc(C(C)(C)C)s4)C(=O)N[C@@H](C(=O)O)[C@H](C)c4ccccc4)cc3)nc2)cc1 [Compound 910] | 5.60 to 6.10 |
| CC(C)(C)c1ccc(C(=O)N[C@@H](Cc2ccc(-c3ncc(-c4ccc(C5CCC6(CC5)OCCO6)cc4)cn3)cc2)C(=O)N2CC(C(=O)O)C2)s1 [Compound 1186] | > 6.10 |
| CCCCCCCOc1ccc(-c2cnc(-c3ccc(C[C@H](NC(=O)c4ccc(C(C)(C)C)s4)C(=O)NC(C)CO)cc3)nc2)cc1 (stereo partly drawn) [Compound 387] | 5.00 to 5.30 |
| CCCCCCCOc1ccc(-c2cnc(-c3ccc(C[C@H](NC(=O)c4ccc(C(C)(C)C)c(OC)c4)C(=O)N4CCC[C@H]4C(=O)O)cc3)nc2)cc1 [Compound 1081] | 5.60 to 6.10 |
| Cc1cccc(NC(=O)c2cccc(-c3cnc(-c4ccc(C[C@H](NC(=O)c5ccc(C(C)(C)C)s5)C(=O)N[C@H](C)C(=O)O)cc4)nc3)c2)c1C [Compound 996] | 5.60 to 6.10 |
| CC[C@H]1CC[C@H](c2ccc(-c3cnc(-c4ccc(C[C@H](NC(=O)c5ccc(C(C)(C)C)s5)C(=O)N[C@@H](C)C(=O)O)cc4)nc3)cc2)CC1 [Compound 1067] | 5.60 to 6.10 |
| CCCCCCCOc1ccc(-c2cnc(-c3ccc(C[C@H](NC(=O)c4ccc(C(C)(C)C)s4)C(=O)NCC(=O)NCC(=O)O)cc3)nc2)cc1 [Compound 486] | > 6.10 |
| CCCCCCCOc1ccc(-c2cnc(-c3ccc(C[C@H](NC(=O)c4ccc(C(C)(C)C)s4)C(=O)N4CCCC45CNC5)cc3)nc2)cc1 [Compound 1048] | 5.30 to 5.60 |

Results, then the compound that gave them:

| pEC50 | SMILES |
| --- | --- |
| > 6.10 | CCCCCCCOc1ccc(-c2cnc(-c3ccc(C[C@H](NC(=O)c4ccc(C(C)(C)C)s4)C(=O)N4CC(F)(C(=O)O)C4)cc3)nc2)cc1 [Compound 878] |
| > 6.10 | CCCCCCCOc1ccc(-c2cnc(-c3ccc(C[C@H](NC(=O)c4ccc(C(C)(C)C)s4)C(=O)NC(C(=O)O)c4cccc(S(C)(=O)=O)c4)cc3)nc2)cc1 (stereo partly drawn) [Compound 501] |
| > 6.10 | CC(C)[C@H]1CC[C@H](c2ccc(-c3cnc(-c4ccc(C[C@H](NC(=O)c5ccc(C(C)(C)C)s5)C(=O)N5CC(C(=O)O)C5)cc4)nc3)cc2)CC1 [Compound 1178] |
| 5.00 to 5.30 | CCCCCCCOc1ccc(-c2cnc(-c3ccc(C[C@H](NC(=O)c4ccc(C(C)(C)C)s4)C(=O)N4CC[C@@H](N)C4)cc3)nc2)cc1 [Compound 987] |
| 5.00 to 5.30 | CCCCCCCOc1ccc(-c2cnc(-c3ccc(C[C@H](NC(=O)/C=C/C(C)(C)C)C(=O)NC(C(=O)O)C(O)c4ccccc4)cc3)nc2)cc1 (stereo partly drawn) [Compound 955] |
| 5.30 to 5.60 | C[C@@H](NC(=O)[C@H](Cc1ccc(-c2ncc(-c3ccc(N4CCCCC4)cc3)cn2)cc1)NC(=O)c1ccc(C(C)(C)C)s1)C(=O)O [Compound 740] |
| > 6.10 | CCCCCCCOc1ccc(-c2cnc(-c3ccc(C[C@H](NC(=O)c4ccc(C(C)(C)C)s4)C(=O)N[C@@H](Cc4cccnc4)C(=O)O)cc3)nc2)cc1 [Compound 617] |
| 5.60 to 6.10 | CCCCCCCOc1ccc(-c2cnc(-c3ccc(C[C@H](NC(=O)c4ccc(C(C)(C)C)cc4)C(=O)NCc4ccc(C(=O)O)o4)cc3)nc2)cc1 [Compound 572] |
| 5.00 to 5.30 | CCCCCCCOc1ccc(-c2cnc(-c3ccc(C[C@H](NC(=O)c4ccc(C(C)(C)C)s4)C(=O)N4CCCN(C)CC4)cc3)nc2)cc1 [Compound 963] |
| 5.30 to 5.60 | CCCCCCNc1ccc(-c2cnc(-c3ccc(C[C@H](NC(=O)c4ccc(C(C)(C)C)cc4)C(=O)NCCC(=O)O)cc3)nc2)cc1 [Compound 686] |
| 5.30 to 5.60 | CC(C)(C)c1ccc(C(=O)N[C@@H](Cc2ccc(-c3ncc(-c4ccc(OC5CCCC5)cc4)cn3)cc2)C(=O)NCCC(=O)O)cc1 [Compound 688] |
| 5.60 to 6.10 | CCCCCCCOc1ccc(-c2cnc(-c3ccc(C[C@H](NC(=O)c4ccc(CC)s4)C(=O)NC(C(=O)O)C(O)c4ccccc4)cc3)nc2)cc1 (stereo partly drawn) [Compound 957] |
| > 6.10 | CCCCCCCOc1ccc(-c2cnc(-c3ccc(C[C@H](NC(=O)c4ccc(C(C)(C)C)s4)C(=O)N[C@@H](C(=O)O)[C@@H](C)O)cc3)nc2)cc1 [Compound 659] |
